Laboratory results published in US8927721B2, “Naphthyridine derivative” (Shionogi & Co., Ltd., priority 2010, dated 2015).

How the values were obtained:
Recombinant human BACE1 = target: T1, Recombinant human BACE1 (Homo sapiens, UniProt P56817); test: Assay of BACE1 inhibitory activity; format: biochemical; details: Recombinant human BACE1, 30° C., 3 hours, pH 5.0; read-out: IC50 (50% inhibitory concentration against the enzymatic activity)
T1 construct: purchased R&D Systems
Procedure: 48.5 μL of substrate peptide solution (Biotin-XSEVNLDAEFRHDSGC-Eu: X=ε-amino-n-capronic acid, Eu=Europium cryptate) was added to each well of 96-hole half-area plate (a black plate: Costar), and after addition of 0.5 μl of the compound of the present invention (N,N′-dimethylformamide solution) and 1 μl of Recombinant human BACE1(R&D Systems), the reaction mixture was incubated at 30° C. for 3 hours. The substrate peptide was synthesized by reacting Cryptate TBPCOOH mono SMP (CIS bio international) with Biotin-XSEVNLDAEFRHDSGC (Peptide Institute, Inc.). The final concentrations of the substrate peptide and Recombinant human BACE1 were adjusted to 18 nmol/L and 7.4 nmol/L, respectively, and the reaction was performed in sodium acetate buffer (50 mmol/L sodium acetate, pH 5.0, 0.008% Triton X-100). After the incubation for reaction, 50 μl of 8.0 μg/ml Streptavidin-XL665 (CIS bio international) dissolved in phosphate buffer (150 mmol/L K2HPO4—KH2PO4, pH 7.0, 0.008% Triton X-100, 0.8 mol/L KF) was added to each well and left stand at 30° C. for 1 hour. After then, fluorescence intensity was measured (excitation wavelength: 320 nm, measuring wavelength: 620 nm and 665 nm) using Wallac 1420 multilabel counter (Perkin Elmer life sciences). Enzymatic activity was determined from counting ratio of each wavelength (10,000×Count 665/Count 620) and 50% inhibitory concentration against the enzymatic activity (IC50) was calculated.

CYP3A4 = CYP3A4 (Homo sapiens, UniProt P08684); test: CYP inhibition test (CYP3A4); format: in vitro ADME; set-up: enzyme, pooled human hepatic microsome 0.2 mg protein/mL; from tissue; host or cells: pooled human hepatic microsome; details: pooled human hepatic microsome, terfenedine hydroxylation
Description: (§1) Using commercially available pooled human hepatic microsome, and employing, as markers, 7-ethoxyresorufin O-deethylation (CYP1A2), tolbutamide methyl-hydroxylation (CYP2C9), mephenyloin 4′-hydroxylation (CYP2C19), dextromethorphan O-demethylation (CYP2D6), and terfenedine hydroxylation (CYP3A4) as typical substrate metabolism reactions of human main five CYP enzyme forms (CYP1A2, 2C9, 2C19, 2D6, 3A4), an inhibitory degree of each metabolite production amount by a compound of the present invention was assessed. […] After the centrifugation at 3000 rpm for 15 minutes, resorufin (CYP1A2 metabolite) in the supernatant was quantified by a multi-label counter and hydroxytolbutamide (CYP2C9 metabolite), 4′-hydroxymephenyloin (CYP2C19 metabolite), dextrorphan (CYP2D6 metabolite), and terfenadine alcohol metabolite (CYP3A4 metabolite) were quantified by LC/MS/MS. Addition of only DMSO being a solvent dissolving a compound to a reaction system was adopted as a control (100%), remaining activity (%) was calculated and IC50 was calculated by reverse presumption by a logistic model using a concentration and an inhibition rate.

CYP2C19 = target: T2, CYP2C19 (Homo sapiens, UniProt P33261); test: CYP inhibition test (CYP2C19); format: in vitro ADME; details: pooled human hepatic microsome, mephenyloin 4′-hydroxylation
T2 construct: enzyme, pooled human hepatic microsome 0.2 mg protein/mL; from tissue; host or cells: pooled human hepatic microsome
Description: as §1

CYP2D6 = target: T3, CYP2D6 (Homo sapiens, UniProt P10635); test: CYP inhibition test (CYP2D6); format: in vitro ADME; details: pooled human hepatic microsome, dextromethorphan O-demethylation
T3 construct: enzyme, pooled human hepatic microsome 0.2 mg protein/mL; from tissue; host or cells: pooled human hepatic microsome
Description: as §1

CYP2C9 = target: T4, CYP2C9 (Homo sapiens, UniProt P11712); test: CYP inhibition test (CYP2C9); format: in vitro ADME; details: pooled human hepatic microsome, tolbutamide methyl-hydroxylation
T4 construct: enzyme, pooled human hepatic microsome 0.2 mg protein/mL; from tissue; host or cells: pooled human hepatic microsome
Description: as §1

CYP1A2 = target: T5, CYP1A2 (Homo sapiens, UniProt P05177); test: CYP inhibition test (CYP1A2); format: in vitro ADME; details: pooled human hepatic microsome, 7-ethoxyresorufin O-deethylation
T5 construct: enzyme, pooled human hepatic microsome 0.2 mg protein/mL; from tissue; host or cells: pooled human hepatic microsome
T5 sequence (P05177 1-516): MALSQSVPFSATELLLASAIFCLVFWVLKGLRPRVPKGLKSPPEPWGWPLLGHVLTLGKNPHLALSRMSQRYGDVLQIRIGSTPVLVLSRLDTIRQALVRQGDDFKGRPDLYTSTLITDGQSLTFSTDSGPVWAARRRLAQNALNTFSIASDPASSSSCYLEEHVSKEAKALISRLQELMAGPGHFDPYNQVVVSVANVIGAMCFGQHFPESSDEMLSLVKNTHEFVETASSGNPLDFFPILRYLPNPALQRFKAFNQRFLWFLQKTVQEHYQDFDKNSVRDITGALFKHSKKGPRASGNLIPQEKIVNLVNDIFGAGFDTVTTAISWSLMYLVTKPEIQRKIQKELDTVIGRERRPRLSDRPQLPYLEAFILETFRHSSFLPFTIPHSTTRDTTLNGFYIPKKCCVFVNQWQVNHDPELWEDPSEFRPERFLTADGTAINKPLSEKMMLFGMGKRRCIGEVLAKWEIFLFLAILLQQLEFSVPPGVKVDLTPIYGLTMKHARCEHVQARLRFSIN
Description: as §1

[1] = Metabolism stability test; format: in vitro ADME; details: human liver microsomes 0.5 mg protein/mL, 37° C., 30 minutes, NADPH
Procedure: Using a commercially available pooled human hepatic microsomes, a compound of the present invention is reacted for a constant time, a remaining rate is calculated by comparing a reacted sample and an unreacted sample, thereby, a degree of metabolism in liver of the compound of the present invention is assessed.
A reaction is performed (oxidative reaction) at 37° C. for 0 minute or 30 minutes in the presence of 1 mmol/L NADPH in 0.2 mL of a buffer (50 mmol/L Tris-HCl pH 7.4, 150 mmol/L potassium chloride, 10 mmol/L magnesium chloride) containing 0.5 mg protein/mL of human liver microsomes. After the reaction, 50 μL of the reaction solution is added to 100 μL of a methanol/acetonitrile=1/1 (v/v), mixed and centrifuged at 3000 rpm for 15 minutes. The compound of the present invention in the supernatant is quantified by LC/MS/MS, and a remaining amount of the compound of the present invention after the reaction is calculated, letting a compound amount at 0 minute reaction time to be 100%.

T1 sequence (P56817 46-501): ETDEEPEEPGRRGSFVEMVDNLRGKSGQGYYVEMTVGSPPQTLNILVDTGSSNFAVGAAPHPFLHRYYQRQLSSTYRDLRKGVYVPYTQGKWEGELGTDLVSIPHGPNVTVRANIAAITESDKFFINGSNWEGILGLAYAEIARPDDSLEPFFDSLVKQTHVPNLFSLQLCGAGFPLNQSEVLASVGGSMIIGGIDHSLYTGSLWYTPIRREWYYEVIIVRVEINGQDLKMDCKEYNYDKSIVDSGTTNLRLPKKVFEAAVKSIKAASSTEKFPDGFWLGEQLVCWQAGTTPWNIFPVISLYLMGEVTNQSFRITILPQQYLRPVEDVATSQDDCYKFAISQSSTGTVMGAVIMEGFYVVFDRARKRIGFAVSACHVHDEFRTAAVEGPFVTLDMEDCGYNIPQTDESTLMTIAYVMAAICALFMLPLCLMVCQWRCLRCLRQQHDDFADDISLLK
T4 sequence (P11712 whole entry): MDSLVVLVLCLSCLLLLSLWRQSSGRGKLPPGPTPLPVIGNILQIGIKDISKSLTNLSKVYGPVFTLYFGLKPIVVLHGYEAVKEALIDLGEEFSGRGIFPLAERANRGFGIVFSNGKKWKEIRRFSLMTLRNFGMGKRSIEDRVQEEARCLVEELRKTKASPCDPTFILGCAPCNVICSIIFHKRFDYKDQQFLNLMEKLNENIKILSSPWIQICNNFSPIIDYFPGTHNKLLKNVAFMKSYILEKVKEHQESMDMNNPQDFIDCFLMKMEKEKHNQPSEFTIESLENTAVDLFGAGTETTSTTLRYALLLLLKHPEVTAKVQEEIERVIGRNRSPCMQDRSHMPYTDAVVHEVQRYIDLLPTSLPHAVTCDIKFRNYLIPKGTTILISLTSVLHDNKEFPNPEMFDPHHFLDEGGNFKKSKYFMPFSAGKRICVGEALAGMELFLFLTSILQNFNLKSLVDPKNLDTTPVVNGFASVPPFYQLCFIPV
CYP3A4, sequence (P08684 whole entry): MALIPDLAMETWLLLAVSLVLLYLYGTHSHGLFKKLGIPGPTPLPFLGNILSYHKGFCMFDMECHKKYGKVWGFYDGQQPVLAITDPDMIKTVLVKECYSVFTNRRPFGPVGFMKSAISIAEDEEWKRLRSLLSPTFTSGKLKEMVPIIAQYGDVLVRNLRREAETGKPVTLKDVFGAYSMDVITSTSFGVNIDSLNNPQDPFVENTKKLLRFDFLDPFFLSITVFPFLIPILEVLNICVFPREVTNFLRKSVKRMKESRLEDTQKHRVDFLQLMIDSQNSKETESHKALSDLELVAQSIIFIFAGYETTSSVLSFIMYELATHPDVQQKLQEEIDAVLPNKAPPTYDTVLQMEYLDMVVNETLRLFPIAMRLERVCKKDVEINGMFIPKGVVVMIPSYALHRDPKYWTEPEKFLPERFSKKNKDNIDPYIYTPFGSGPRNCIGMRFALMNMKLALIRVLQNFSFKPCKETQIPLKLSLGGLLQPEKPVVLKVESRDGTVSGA
T3 sequence (P10635 whole entry): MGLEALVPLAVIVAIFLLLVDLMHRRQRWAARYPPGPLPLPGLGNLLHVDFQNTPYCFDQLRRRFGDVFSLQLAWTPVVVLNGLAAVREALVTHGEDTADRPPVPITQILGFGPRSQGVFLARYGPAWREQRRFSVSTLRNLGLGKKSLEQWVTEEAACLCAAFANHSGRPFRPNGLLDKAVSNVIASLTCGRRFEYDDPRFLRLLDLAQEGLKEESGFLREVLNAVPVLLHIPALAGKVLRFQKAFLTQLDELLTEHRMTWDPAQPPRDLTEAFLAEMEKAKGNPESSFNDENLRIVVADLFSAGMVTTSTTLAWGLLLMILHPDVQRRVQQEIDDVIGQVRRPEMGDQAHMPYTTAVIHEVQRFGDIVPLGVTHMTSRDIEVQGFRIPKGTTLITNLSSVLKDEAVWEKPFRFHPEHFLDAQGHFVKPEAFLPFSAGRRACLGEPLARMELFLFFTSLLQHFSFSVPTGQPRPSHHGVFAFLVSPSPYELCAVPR
T2 sequence (P33261 whole entry): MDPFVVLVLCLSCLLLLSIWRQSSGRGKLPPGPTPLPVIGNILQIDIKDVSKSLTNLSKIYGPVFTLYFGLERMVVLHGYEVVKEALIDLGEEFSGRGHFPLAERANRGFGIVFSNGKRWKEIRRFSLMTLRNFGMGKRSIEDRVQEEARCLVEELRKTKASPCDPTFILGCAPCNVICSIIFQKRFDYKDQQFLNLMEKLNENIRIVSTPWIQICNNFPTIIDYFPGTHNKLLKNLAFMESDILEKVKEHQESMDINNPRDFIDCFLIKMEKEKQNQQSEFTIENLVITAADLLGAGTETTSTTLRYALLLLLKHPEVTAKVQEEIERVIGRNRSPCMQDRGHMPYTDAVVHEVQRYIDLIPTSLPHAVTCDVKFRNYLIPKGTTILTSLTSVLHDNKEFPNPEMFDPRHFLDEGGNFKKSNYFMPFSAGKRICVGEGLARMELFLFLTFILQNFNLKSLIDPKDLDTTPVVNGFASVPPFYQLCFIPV

| Compound | IC50 (Recombinant human BACE1) [µM] | IC50 (CYP3A4) [µM] | IC50 (CYP2C19) [µM] | IC50 (CYP2D6) [µM] | IC50 (CYP2C9) [µM] | IC50 (CYP1A2) [µM] | remaining amount after the reaction [1] [%] |
| --- | --- | --- | --- | --- | --- | --- | --- |
| CC1(c2cc(NC(=O)c3ncc(F)cc3F)ccc2F)Cc2ccncc2C(N)=N1 (centres unmarked) [Compound I-2] | ≤ 1 | > 20 | > 20 | > 20 | > 20 | > 20 | – |
| CC1(c2cc(NC(=O)c3ccc(C#N)cn3)ccc2F)Cc2cnccc2C(N)=N1 (centres unmarked) [Compound I-5] | ≤ 1 | – | – | – | – | – | 88 |
